According to patent publication US10442788B2, “Hepatitis B antiviral agents” (ENANTA PHARMACEUTICALS, INC., priority 2015, dated 2019):

Experiments:
HBV = test: HepAD38 antiviral assay: reduction of viral product accumulation (virion DNA by qPCR, HBsAg or HBeAg by ELISA); type: cell-based; details: Hepatitis B virus, 120 h; HepAD38 cells, five days after compound addition; 50% reduction of viral product accumulation relative to no drug controls; read-out: HepAD38 EC50
Method in brief: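 Tetracycline-washed HepAD38 cells treated with compound (DMSO diluted 1:200) for 5 days, or 8 days with media and compound refreshed on d2 and d5. Virion DNA from lysates quantified by qPCR; HBsAg or HBeAg by ELISA. EC50 is the concentration giving 50% reduction versus no-drug controls, reported as ranges A<1 μM, B 1-10 μM, C>10 μM.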

[1] = Compound toxicity, ATPLite total ATP levels; type: cell-based; details: human, HepAD38 cells; 15,000 cells/well, three days after compound addition; 50% reduction of total ATP levels relative to no drug controls
Protocol: Methods: HepAD38 cells are maintained as previously reported (Ladner et al, Antimicrob. Agents Chemother. 1997, […], 1715). Briefly, cells are passaged upon attaining confluency in DMEM/F12 media in the presence of 10% FBS, Penn/Strep, 250 μg/mL G418, and 1 ug/ml tetracycline. Novel compounds are screened by first washing cells three times with PBS to remove tetracycline, and plating in 96 well plates at 35,000 cells/well. Compounds dissolved in DMSO are then diluted 1:200 into wells containing cells. Five days after compound addition, material is harvested for analysis. For an extended 8 day analysis, cells are plated and treated as described above, but media and compound are refreshed on d2 and d5 post initial treatment.
Compound toxicity is evaluated by seeding cells at 15,000 cells/well and treating with compound as described above. Three days after compound addition, cells are treated with ATPLite reagent and compound concentrations that reduce total ATP levels in wells by 50% relative to no drug controls (CC50) are reported; CC50 ranges are as follows: A>30 μM; B 10-30 μM; C<10 μM.

Row | SMILES | EC50 (HBV) [µM] | CC50 at 3 days [1] [µM]
1 | COC(=O)NCCCNS(=O)(=O)c1cc(-c2ncc(-c3ccc(F)c(Br)c3)[nH]2)ccc1Cl [Example 62] | 1 to 10 | 10 to 30
2 | COC(=O)NCCCNS(=O)(=O)c1cc(-c2ncc(-c3ccc(F)c(Br)c3)n2C(=O)OC)ccc1Cl [Example 63] | 1 to 10 | 10 to 30
3 | O=C1CN(S(=O)(=O)c2cc(-c3ncc(-c4ccc(F)c(Br)c4)[nH]3)ccc2Cl)CCN1 [Example 64] | 1 to 10 | 10 to 30
4 | O=S(=O)(c1cc(-c2ncc(-c3ccc(F)c(O)c3)[nH]2)ccc1Cl)N1CCC(O)CC1 [Example 65] | > 10 | > 30
5 | O=S(=O)(c1cc(-c2nc(-c3ccc(Br)cc3)c[nH]2)ccc1Cl)N1CCC(O)CC1 [Example 66] | < 1 | 10 to 30
6 | Cc1cc(F)ccc1-c1c[nH]c(-c2ccc(Cl)c(S(=O)(=O)N3CCC(O)CC3)c2)n1 [Example 67] | 1 to 10 | 10 to 30
7 | O=S(=O)(c1cc(-c2nc(-c3ccccc3F)c[nH]2)ccc1Cl)N1CCC(O)CC1 [Example 68] | 1 to 10 | > 30
8 | O=S(=O)(c1cc(-c2nc(-c3ccsc3)c[nH]2)ccc1Cl)N1CCC(O)CC1 [Example 69] | 1 to 10 | > 30
9 | O=S(=O)(c1cc(-c2nc(-c3ccc(Cl)c(Cl)c3)c[nH]2)ccc1Cl)N1CCC(O)CC1 [Example 71] | < 1 | 10 to 30
10 | O=S(=O)(c1cc(-c2nc(-c3ccc(Cl)c(F)c3)c[nH]2)ccc1Cl)N1CCC(O)CC1 [Example 72] | < 1 | 10 to 30
11 | Cc1ccc(-c2c[nH]c(-c3ccc(Cl)c(S(=O)(=O)N4CCC(O)CC4)c3)n2)cc1F [Example 73] | 1 to 10 | > 30
12 | O=S(=O)(c1cc(-c2nc(-c3ccc(Br)c(Cl)c3)c[nH]2)ccc1Cl)N1CCC(O)CC1 [Example 82] | < 1 | < 10
13 | O=S(=O)(c1cc(-c2nc(-c3ccc(C(F)(F)F)c(F)c3)c[nH]2)ccc1Cl)N1CCC(O)CC1 [Example 83] | < 1 | < 10
14 | O=S(=O)(c1cc(-c2nc(-c3ccc(Cl)c(Br)c3)c[nH]2)ccc1Cl)N1CCC(O)CC1 [Example 87] | < 1 | < 10
15 | Cc1cccc(-c2c[nH]c(-c3ccc(Cl)c(S(=O)(=O)N4CCC(O)CC4)c3)n2)c1 [Example 91] | 1 to 10 | > 30
16 | N#Cc1cccc(-c2c[nH]c(-c3ccc(Cl)c(S(=O)(=O)N4CCC(O)CC4)c3)n2)c1 [Example 92] | 1 to 10 | > 30
17 | COc1cccc(-c2c[nH]c(-c3ccc(Cl)c(S(=O)(=O)N4CCC(O)CC4)c3)n2)c1 [Example 93] | > 10 | > 30
18 | O=S(=O)(c1cc(-c2nc(-c3cccc(C(F)(F)F)c3)c[nH]2)ccc1Cl)N1CCC(O)CC1 [Example 94] | < 1 | 10 to 30
19 | O=S(=O)(c1cc(-c2nc(-c3cccc(OC(F)(F)F)c3)c[nH]2)ccc1Cl)N1CCC(O)CC1 [Example 95] | 1 to 10 | > 30
20 | O=S(=O)(c1cc(-c2nc(-c3ccc(C4CC4)cc3)c[nH]2)ccc1Cl)N1CCC(O)CC1 [Example 101] | < 1 | < 10
21 | C#Cc1ccc(-c2c[nH]c(-c3ccc(Cl)c(S(=O)(=O)N4CCC(O)CC4)c3)n2)cc1F [Example 102] | 1 to 10 | > 30
22 | O=S(=O)(c1cc(-c2nc(-c3ccc4[nH]ccc4c3)c[nH]2)ccc1Cl)N1CCC(O)CC1 [Example 103] | < 1 | > 30
23 | CN(CCO)S(=O)(=O)c1cc(-c2nc(-c3ccc(Br)c(F)c3)c[nH]2)ccc1Cl [Example 104] | < 1 | 10 to 30
24 | COCCN(C)S(=O)(=O)c1cc(-c2nc(-c3ccc(Br)c(F)c3)c[nH]2)ccc1Cl [Example 105] | < 1 | > 30
25 | CN(CCCO)S(=O)(=O)c1cc(-c2nc(-c3ccc(Br)c(F)c3)c[nH]2)ccc1Cl [Example 106] | < 1 | < 10
26 | O=S(=O)(c1cc(-c2nc(-c3ccc(Br)c(F)c3)c[nH]2)ccc1Cl)N1CCCC1CO (stereo not drawn) [Example 107] | < 1 | > 30
27 | O=S(=O)(c1cc(-c2nc(-c3ccc(Br)c(F)c3)c[nH]2)ccc1Cl)N1CC(O)C1 [Example 108] | 1 to 10 | > 30

Row | SMILES | EC50 (HBV) [µM] | CC50 at 3 days [1] [µM]
28 | O=S(=O)(c1cc(-c2nc(-c3ccc(Br)c(F)c3)c[nH]2)ccc1Cl)N1CCC(O)C1 (stereo not drawn) [Example 109] | < 1 | < 10
29 | O=S(=O)(c1cc(-c2nc(-c3ccc(Br)c(F)c3)c[nH]2)ccc1Cl)N1CCCC(O)C1 (stereo not drawn) [Example 110] | < 1 | > 30
30 | CC(C)NS(=O)(=O)c1cc(-c2nc(-c3ccc(Br)c(F)c3)c[nH]2)ccc1Cl [Example 111] | < 1 | < 10
31 | CC(C)N(C)S(=O)(=O)c1cc(-c2nc(-c3ccc(Br)c(F)c3)c[nH]2)ccc1Cl [Example 112] | < 1 | > 30
32 | CN(C1CCCCC1)S(=O)(=O)c1cc(-c2nc(-c3ccc(Br)c(F)c3)c[nH]2)ccc1Cl [Example 113] | < 1 | < 10
33 | O=S(=O)(c1cc(-c2nc(-c3ccc(Br)c(F)c3)c[nH]2)ccc1Cl)N1CCC(O)C(F)C1 (stereo not drawn) [Example 114] | < 1 | > 30
34 | O=S(=O)(NCCO)c1cc(-c2nc(-c3ccc(Br)c(F)c3)c[nH]2)ccc1Cl [Example 115] | < 1 | > 30
35 | O=S(=O)(NCCCO)c1cc(-c2nc(-c3ccc(Br)c(F)c3)c[nH]2)ccc1Cl [Example 116] | < 1 | > 30
36 | CS(=O)(=O)CCNS(=O)(=O)c1cc(-c2nc(-c3ccc(Br)c(F)c3)c[nH]2)ccc1Cl [Example 117] | < 1 | > 30
37 | CNCCNS(=O)(=O)c1cc(-c2nc(-c3ccc(Br)c(F)c3)c[nH]2)ccc1Cl [Example 118] | < 1 | > 30
38 | COC(=O)NCCNS(=O)(=O)c1cc(-c2nc(-c3ccc(Br)c(F)c3)c[nH]2)ccc1Cl [Example 119] | < 1 | < 10
39 | COC(=O)NCC(C)NS(=O)(=O)c1cc(-c2nc(-c3ccc(Br)c(F)c3)c[nH]2)ccc1Cl (stereo not drawn) [Example 120] | < 1 | < 10
40 | Cc1ccccc1-c1c[nH]c(-c2ccc(Cl)c(S(=O)(=O)N3CCC(O)CC3)c2)n1 [Example 121] | 1 to 10 | > 30
41 | O=S(=O)(c1cc(-c2nc(-c3ccccc3C3CC3)c[nH]2)ccc1Cl)N1CCC(O)CC1 [Example 122] | > 10 | > 30
42 | O=S(=O)(c1cc(-c2nc(-c3ccc(Br)c(F)c3)c[nH]2)ccc1Cl)N1CCC(F)CC1 [Example 123] | < 1 | > 30
43 | O=S(=O)(c1cc(-c2nc(-c3ccc(Br)c(F)c3)c[nH]2)ccc1Cl)N1CCC(F)(F)CC1 [Example 124] | < 1 | < 10
44 | COC(=O)CNS(=O)(=O)c1cc(-c2nc(-c3ccc(Br)c(F)c3)c[nH]2)ccc1Cl [Example 125] | > 10 | > 30
45 | COC(=O)CN(C)S(=O)(=O)c1cc(-c2nc(-c3ccc(Br)c(F)c3)c[nH]2)ccc1Cl [Example 126] | > 10 | > 30
46 | CC(CO)NS(=O)(=O)c1cc(-c2nc(-c3ccc(Br)c(F)c3)c[nH]2)ccc1Cl (stereo not drawn) [Example 127] | < 1 | > 30
47 | COC(=O)C(C)NS(=O)(=O)c1cc(-c2nc(-c3ccc(Br)c(F)c3)c[nH]2)ccc1Cl (stereo not drawn) [Example 128] | > 10 | > 30
48 | CC(CO)N(C)S(=O)(=O)c1cc(-c2nc(-c3ccc(Br)c(F)c3)c[nH]2)ccc1Cl (stereo not drawn) [Example 129] | < 1 | < 10
49 | O=S(=O)(c1cc(-c2nc(-c3ccc(Br)c(F)c3)c[nH]2)ccc1Cl)N1CCN(c2ccccn2)CC1 [Example 130] | < 1 | > 30
50 | O=S(=O)(c1cc(-c2nc(-c3cc(F)c(Br)c(F)c3)c[nH]2)ccc1Cl)N1CCC(O)CC1 [Example 131] | < 1 | > 30
51 | O=S(=O)(c1cc(-c2nc(-c3ccc(Br)c(F)c3)c[nH]2)ccc1Cl)N1CCCCC(O)C1 (stereo not drawn) [Example 132] | < 1 | > 30
52 | O=S(=O)(c1cc(-c2nc(-c3ccc(Br)c(F)c3)c[nH]2)ccc1Cl)N1CCC(O)(CO)CC1 [Example 133] | < 1 | > 30
53 | CC(O)C(C)(C)NS(=O)(=O)c1cc(-c2nc(-c3ccc(Br)c(F)c3)c[nH]2)ccc1Cl (stereo not drawn) [Example 134] | < 1 | > 30
54 | O=S(=O)(c1cc(-c2nc(-c3ccc(Br)c(Br)c3)c[nH]2)ccc1Cl)N1CCC(O)CC1 [Example 135] | < 1 | > 30
